Measurements taken from US9156840B2, “D2 antagonists, methods of synthesis and methods of use” (ALTOS THERAPEUTICS, LLC, priority 2010, dated 2015).
pIC50: −log10 of the molar value. Counter-ions that a name gives are not always drawn.

Each compound was assayed against T1, human D2 receptor (Homo sapiens, UniProt P14416) (assay: D2 receptor radioligand binding assay (membranes of HEK-293 cells expressing human D2 receptor)). Conditions: radioligand displacement, HEK293 membranes, 37° C. for 120 minutes; read-out: Affinity Score (IC50 values for D2 on a scale of 1 through 5).
T1 construct: expressed in transfected cells; cDNA from Origene clones TC308892 and SC123573
T1 sequence (P14416 whole entry): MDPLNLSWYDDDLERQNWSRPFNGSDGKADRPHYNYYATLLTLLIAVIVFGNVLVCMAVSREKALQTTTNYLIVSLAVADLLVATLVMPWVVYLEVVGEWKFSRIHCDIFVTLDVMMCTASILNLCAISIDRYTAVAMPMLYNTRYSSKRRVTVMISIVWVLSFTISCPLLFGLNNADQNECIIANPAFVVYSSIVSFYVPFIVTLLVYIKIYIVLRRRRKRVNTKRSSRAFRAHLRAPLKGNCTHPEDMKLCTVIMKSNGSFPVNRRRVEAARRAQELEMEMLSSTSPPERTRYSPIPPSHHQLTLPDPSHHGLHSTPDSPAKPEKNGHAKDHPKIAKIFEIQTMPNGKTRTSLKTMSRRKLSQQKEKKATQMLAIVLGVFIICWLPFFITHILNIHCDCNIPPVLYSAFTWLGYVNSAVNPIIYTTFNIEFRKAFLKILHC
Method: Affinity for the dopamine D2 receptor was tested in vitro, and the following describes the construction of cell lines expressing human D2 receptor, as well as the binding assays themselves.
Establishment of Stable Cell Lines Expressing Either the Cloned Human D2S Receptor or the Cloned Human D2L Receptor.
The human D2 receptor exists in two isoforms: the short form (D2S) and the long form (D2L). The two isoforms are generated from the D2 gene by alternative splicing and the D2L isoform differs from the D2S isoform by the addition of 29 amino acids in the third intracellular loop of its protein structure.
To establish HEK-293 cell lines stably expressing either the human D2S or the human D2L, the human dopamine D2S receptor (Genebank Accession Number NM_016574) and human dopamine D2L receptor (Genebank Accession Number BC021195) were amplified by PCR from Origene cDNA clones TC308892 and SC123573 (respectively) using the following primers: 5-[…]-3 (SEQ ID NO: 1) sense and 5-[…]-3 (SEQ ID NO: 2) antisense. The resulting PCR products were respectively cloned into pENTR-D-TOPO (Invitrogen), sequenced and then transferred into the pCDNA3.2-DEST (Invitrogen) using the LR-clonasc gateway reaction (Invitrogen) and sequenced again to verify the genes sequence.
HEK293 cells were maintained in Eagles Minimum Essential Medium (MEM) supplemented with 0.292 g/L L-glutamine and 10% (v/v) fetal calf serum at 37° C. in a 5% CO2 humidified atmosphere. Cells were grown to 60-80% confluency in 10 cm dishes before transfection. Transfection of the D2S and D2L containing pcDNA3.2-DEST into HEK-293 cells were performed using Lipofectamine 2000 (Invitrogen). Transfected cells were seeded and diluted 2 days after transfection and maintained in culture medium supplemented with 500 μg/mL G418. The HEK-293 cell line expressing the huD2S (R2D2S) and the huD2L (R2D2L) were maintained in culture medium supplemented with 500 μg/mL G418.
D2 Receptor Binding Assays
HEK293 cells were in Eagles Minimum Essential Medium (MEM) supplemented with 10% FBS, 0.292 g/liter L-glutamine, 10^5 units/liter penicillin, 100 mg/liter streptomycin and […] Geneticin at 37° C. in a 5% CO2 humidified atmosphere. Cells were grown to 80-90% confluence and harvested with cell stripper (Cellgro #25-056-CI). Cells were then washed with PBS (2×). Cells were either pelleted and frozen at −80° C. or membranes were prepared immediately.
Cells from pellet were resuspended in homogenization buffer (15 mM Tris*HCl, 2 mM MgCl2*6H2O, 0.3 mM EDTA, 1 mM EGTA pH 7.4 @ 4° C.). Cells were then homogenized using a Polytron (PT 1200) homogenizer at setting 6 for 10 seconds. Crude membranes were pelleted at 39, 412 g for 15 min, at 4° C. (2×) in a Sorval RC6 plus centrifuge. Membranes were finally resuspended in resuspension buffer (50 mM Tris*HCl, 120 mM NaCl, 10 mM MgCl2*6H2O, 1 mM EDTA pH 7.4 @ 4° C.) and sonicated (Fisher Sonic Dismembrator) at setting 5 for 10 seconds.
The radioligand binding assays were conducted in microtiter plates (Costar #3961) with a final volume of 1.0 mL.
The membranes were thawed at room temperature, briefly homogenized using a sonicator, diluted in assay buffer and kept on wet ice until being added to the assay plate. Membranes were diluted to a final target tissue concentration of 10 μg protein per well. The specific binding should be greater than 80% with less than 10% total radioligand bound to minimize ligand depletion errors.
First compound of the invention (50 μL) or assay buffer (50 mM Tris*HCl, 120 mM NaCl, 5 mM MgCl2*6H2O, 1 mM EDTA, 5 mM KCl pH 7.4 @37° C. plus 0.025% BSA), buffer (700 μL) and then membrane (200 μL) were added to the deep well assay plate, which was then shaken for 10 minutes. Finally, radioligand (50 μL) was added.
The assay plates were incubated at 37° C. for 120 minutes.
The assay plate were filtered over 0.3% PEI pretreated glass fiber filtermats (GF/C) using a Packard Filtermate cell harvester. […]

Q: With CC1C(=O)N(CCCN2CCC3(CC2)C(=O)N(Cc2cccc(C(=O)O)c2)CN3c2ccccc2)c2ccccc21 (centres unmarked) [Compound 146, 3-((8-(3-(3-methyl-2-oxoindolin-1-yl)propyl)-4-oxo-1-phenyl-1,3,8-triazaspiro[4.5]decan-3-yl)methyl)benzoic acid] as the compound, how does the pIC50 read?
A: > 8.00

Q: How did the pIC50 turn out when O=C(O)c1ccccc1CN1CN(c2ccccc2)C2(CCN(CCCN3C(=O)Cc4ccccc43)CC2)C1=O [Compound 148, 2-((4-Oxo-8-(3-(2-oxoindolin-1-yl)propyl)-1-phenyl-1,3,8-triazaspiro[4.5]decan-3-yl)methyl)benzoic acid] was run?
A: > 8.00

Q: How did the pIC50 turn out when O=C(O)c1ccccc1CN1CN(c2ccccc2)C2(CCN(CCCN3C(=O)C4(CC4)c4ccccc43)CC2)C1=O [Compound 149, 2-((4-Cho-8-(3-(2′-oxospiro[cyclopropane-1,3′-indoline]-1′-yl)propyl)-1-phenyl-1,3,8-triazaspiro[4.5]decan-3-yl)methyl)benzoic acid] was run?
A: > 8.00

Q: With O=C(O)c1ccccc1CN1CN(c2ccc(F)cc2)C2(CCN(CCCN3C(=O)Cc4ccccc43)CC2)C1=O [Compound 152, 2-((1-(4-Fluorophenyl)-4-oxo-8-(3-(2-oxoindolin-1-yl)propyl)-1,3,8-triazaspiro[4.5]decan-3-yl)methyl)benzoic acid] as the compound, how does the pIC50 read?
A: > 8.00

Q: O=C(CCCN1CCC2(CC1)C(=O)N(Cc1ccccc1C(=O)O)CN2c1ccccc1)c1ccccc1 [Compound 154, 2-((4-oxo-8-(4-oxo-4-phenylbutyl)-1-phenyl-1,3,8-triazaspiro[4.5]decan-3-yl)methyl)benzoic acid] was tested. Which pIC50 did it give?
A: > 8.00

Q: With O=C(O)c1ccccc1CN1CN(c2ccccc2)C2(CCN(CCCn3c(=O)n(C4CC4)c4ccccc43)CC2)C1=O [Compound 155, 2-((8-(3-(3-cyclopropyl-2-oxo-2,3-dihydro-1H-benzo[d]imidazol-1-yl)propyl)-4-oxo-1-phenyl-1,3,8-triazaspiro[4.5]decan-3-yl)methyl)benzoic acid] as the compound, how does the pIC50 read?
A: > 8.00

Q: With O=C(O)c1cccc(CN2CN(c3ccc(F)cc3)C3(CCN(CCCn4c(=O)n(C5CC5)c5ccccc54)CC3)C2=O)c1 [Compound 156, 3-((8-(3-(3-cyclopropyl-2-oxo-2,3-dihydro-1H-benzo[d]imidazol-1-yl)propyl)-1-(4-fluorophenyl)-4-oxo-1,3,8-triazaspiro[4.5]decan-3-yl)methyl)benzoic acid] as the compound, how does the pIC50 read?
A: > 8.00

Q: How did the pIC50 turn out when O=C(O)c1ccccc1CN1CN(c2ccc(F)cc2)C2(CCN(CCCn3c(=O)n(C4CC4)c4ccccc43)CC2)C1=O [Compound 159, 2-((8-(3-(3-cyclopropyl-2-oxo-2,3-dihydro-1H-benzo[d]imidazol-1-yl)propyl)-1-(4-fluorophenyl)-4-oxo-1,3,8-triazaspiro[4.5]decan-3-yl)methyl)benzoic acid] was run?
A: > 8.00

Q: With O=C(O)c1cccc(CN2CN(c3ccccc3)C3(CCN(CCCC4C(=O)Nc5ccccc54)CC3)C2=O)c1 (centres unmarked) [Compound 160, 3-((4-oxo-8-(3-(2-oxoindolin-3-yl)propyl)-1-phenyl-1,3,8-triazaspiro[4.5]decan-3-yl)methyl)benzoic acid, hydrochloride] as the compound, how does the pIC50 read?
A: > 8.00

Q: O=C(O)c1ccccc1CN1CN(c2ccc(F)cc2)C2(CCN(CCCN3C(=O)C4(CC4)c4ccccc43)CC2)C1=O [Compound 161, 2-((1-(4-Fluorophenyl)-4-oxo-8-(3-(2′-oxospiro[cyclopropane-1,3′-indoline]-1′-yl)propyl)-1,3,8-triazaspiro[4.5]decan-3-yl)methyl)benzoic acid] was tested. Which pIC50 did it give?
A: > 8.00

Q: CC1(F)C(=O)N(CCCN2CCC3(CC2)C(=O)N(Cc2ccccc2C(=O)O)CN3c2ccccc2)c2ccccc21 (centres unmarked) [Compound 162, 2-((8-(3-(3-Fluoro-3-methyl-2-oxoindolin-1-yl)propyl)-4-oxo-1-phenyl-1,3,8-triazaspiro[4.5]decan-3-yl)methyl)benzoic acid] was tested. Which pIC50 did it give?
A: > 8.00

Q: How did the pIC50 turn out when CC1(F)C(=O)N(CCCN2CCC3(CC2)C(=O)N(Cc2ccccc2C(=O)O)CN3c2ccc(F)cc2)c2ccccc21 (centres unmarked) [Compound 163] was run?
A: > 8.00

Q: How did the pIC50 turn out when CC1(F)C(=O)N(CCCN2CCC3(CC2)C(=O)N(Cc2cccc(C(=O)O)c2)CN3c2ccc(F)cc2)c2ccccc21 (centres unmarked) [Compound 164, 3-((8-(3-(3-Fluoro-3-methyl-2-oxoindolin-1-yl)propyl)-1-(4-fluorophenyl)-4-oxo-1,3,8-triazaspiro[4.5]decan-3-yl)methyl)benzoic acid] was run?
A: > 8.00

Q: How did the pIC50 turn out when O=C(O)[C@@H](c1ccccc1)N1CN(c2ccccc2)C2(CCN(CCCN3C(=O)Cc4ccccc43)CC2)C1=O [Compound 166, (R)-2-(4-oxo-8-(3-(2-oxoindolin-1-yl)propyl)-1-phenyl-1,3,8-triazaspiro[4.5]decan-3-yl)-2-phenylacetic acid] was run?
A: > 8.00

Q: With O=C(CCCN1CCC2(CC1)C(=O)N([C@@H](C(=O)O)c1ccccc1)CN2c1ccccc1)c1ccccc1 [Compound 167, (R)-2-(4-oxo-8-(4-oxo-4-phenylbutyl)-1-phenyl-1,3,8-triazaspiro[4.5]decan-3-yl)-2-phenylacetic acid] as the compound, how does the pIC50 read?
A: > 8.00

Q: O=C(CCCN1CCC2(CC1)C(=O)N([C@H](C(=O)O)c1ccccc1)CN2c1ccccc1)c1ccccc1 [Compound 168, (S)-2-(4-oxo-8-(4-oxo-4-phenylbutyl)-1-phenyl-1,3,8-triazaspiro[4.5]decan-3-yl)-2-phenylacetic acid] was tested. Which pIC50 did it give?
A: > 8.00

Q: With O=C(O)[C@H](c1ccccc1)N1CN(c2ccccc2)C2(CCN(CCCN3C(=O)Cc4ccccc43)CC2)C1=O [Compound 170, (S)-2-(4-oxo-8-(3-(2-Oxoindolin-1-yl)propyl)-1-phenyl-1,3,8-triazaspiro[4.5]decan-3-yl)-2-phenylacetic acid] as the compound, how does the pIC50 read?
A: > 8.00

Q: CC1(C)C(=O)N(CCCN2CCC3(CC2)C(=O)N(Cc2ccc(C(=O)O)cc2)CN3c2ccccc2)c2ccccc21 [Compound 171, 4-((8-(3-(3,3-dimethyl-2-oxoindolin-1-yl)propyl)-4-oxo-1-phenyl-1,3,8-triazaspiro[4.5]decan-3-yl)methyl)benzoic acid, hydrochloride] was tested. Which pIC50 did it give?
A: > 8.00

Q: O=C(O)c1cccc(CN2CN(c3ccccc3)C3(CCN(CCCC(O)c4ccccc4)CC3)C2=O)c1 (centres unmarked) [Compound 173, 3-((8-(4-hydroxy-4-phenylbutyl)-4-oxo-1-phenyl-1,3,8-triazaspiro[4.5]decan-3-yl)methyl)benzoic acid] was tested. Which pIC50 did it give?
A: > 8.00

Q: With O=C(O)c1cccc(CN2CN(C3CCCCC3)C3(CCN(CCCC(=O)c4ccccc4)CC3)C2=O)c1 [Compound 176, 3-((1-cyclohexyl-4-oxo-8-(4-oxo-4-phenylbutyl)-1,3,8-triazaspiro[4.5]decan-3-yl)methyl)benzoic acid, hydrochloride] as the compound, how does the pIC50 read?
A: > 8.00

Q: O=C(O)c1cccc(N2CN(c3ccccc3)C3(CCN(CCCC(=O)c4ccccc4)CC3)C2=O)c1 [Compound 177, 3-(4-Cho-8-(4-oxo-4-phenylbutyl)-1-phenyl-1,3,8-triazaspiro[4.5]decan-3-yl)benzoic acid] was tested. Which pIC50 did it give?
A: > 8.00

Q: With COC(=O)c1cccc(N2CN(c3ccccc3)C3(CCN(CCCC(=O)c4ccccc4)CC3)C2=O)c1 [Compound 179, Methyl 3-(4-oxo-8-(4-oxo-4-phenylbutyl)-1-phenyl-1,3,8-triazaspiro[4.5]decan-3-yl)benzoate] as the compound, how does the pIC50 read?
A: > 8.00

Q: How did the pIC50 turn out when O=C(CCCN1CCC2(CC1)C(=O)N(c1ccccc1C(=O)O)CN2c1ccccc1)c1ccccc1 [Compound 180, 2-(4-oxo-8-(4-oxo-4-phenylbutyl)-1-phenyl-1,3,8-triazaspiro[4.5]decan-3-yl)benzoic acid] was run?
A: > 8.00
